Test results reported in PMC9093646, “Physicochemical and Biochemical Evaluation of Amorphous Solid Dispersion of Naringenin Prepared Using Hot-Melt Extrusion” (Frontiers in Nutrition, 2022).
In brackets after ≈: the same amount, converted by molar mass.

Experiments:
[1] = Dissolution test, Japanese Pharmacopoeia paddle method; format: physicochemical; conditions: test solution 1 (pH 1.2), after 120 min
Experimental: The dissolution test was conducted using the paddle method described in the Japanese Pharmacopoeia ([26]). First, 900 mL dissolution test solution 1 or 2 was placed in the dissolution tester vessel and then 30 mg of crystalline NRG, 300 mg of PM, and 300 mg of SD were added to it. The temperature (37°C) and stirring rate (100 rpm) were maintained during the experiment. Samples were collected 2, 5, 10, 20, 30, 45, 60, 90, and 120 min after sample addition. The solutions were passed through 0.2-μm filters, and the filtrates were subjected to HPLC analysis.

Solubility test (HPLC) = format: physicochemical; conditions: aqueous buffer, thermodynamic from solid, dissolution test solution 2 (pH 6.8), 37°C, read-out: water solubility
Experimental: The prepared NRG SD (500 mg; equivalent to 50 mg NRG) was added to 2.5 mL dissolution test solution 2. The mixture was shaken vigorously at 37°C for 30 min and centrifuged ([15], [17]). The supernatant was then passed through a 0.2-μm filter and subjected to high-performance liquid chromatography (HPLC) analysis. The NRG concentration was determined using an HPLC system fitted with the LC-20AD pump and the SPD-M20 detector (Shimadzu Corp., Kyoto, Japan) ([15]). A reverse-phase column (CAPCELL PAK C18 MGII; 4.6 mm × 100 mm; 5 μm; Shiseido Co., Ltd., Tokyo, Japan) was operated at 40°C. The mobile phase consisted of a methanol-water (45:55, v/v) mixture with 0.05% (v/v) phosphoric acid, and it was ultrasonically degassed before use. The flow rate was set at 1 mL/min, and the detection wavelength was set at 289 nm. The sample injection volume was 10 μL. The HPLC was calibrated using standard methanol-water (50:50, v/v) NRG solutions in the concentration range of 0.125–40 μg/mL.

[2] = test system: acetic acid-induced writhing in rats; assay: Acetic acid-induced writhing test; format: in vivo, rat; conditions: oral 5 min before i.p. acetic acid, counted over 25 min, crystalline NRG 100 mg/kg, NRG SD 30 or 100 mg/kg
Experimental: The acetic acid-induced writhing test was performed according to the method of Pinho-Ribeiro et al. ([8]) with modifications. Rats aged 5–7 weeks were fasted for 16 h and divided into four groups of eight animals per group. The first group was intragastrically administered 10 mL/kg saline as a control. The second group was intragastrically administered crystalline NRG at 100 mg/kg BW. The third and fourth groups were intragastrically administered NRG SD equivalent to 30 mg/kg and 100 mg/kg BW NRG, respectively. After 5 min, each rat was intraperitoneally injected with 10 mL/kg of 0.8% (v/v) acetic acid in saline solution. Visceral pain intensity was quantified by enumerating the abdominal writhing within 0–25 min after the stimulus. The writhing response was characterized by the contraction of abdominal muscles and stretching of the hind limbs.

[3] = set-up: method as in PMID 17047689; conditions: humans; cited from earlier work
[4] = Pharmacokinetics after oral administration; format: in vivo, rat; conditions: rats, equivalent to 100 mg/kg NRG
Experimental: Each solution was suspended in ion-exchange water immediately prior to administration. […] The blood was stored in heparinized hematocrit tubes, and the plasma was isolated by centrifugation. […] The samples were incubated at 37°C overnight and extracted using the same method that was employed for those containing the unchanged NRG. LC-MS/MS analysis was performed using an ACQUITY UPLC system (Waters Corp., Milford, MA, United States) fitted with a cooling autosampler and a column oven with temperature control. Mass spectrometry was performed using a Waters Xevo TQ-S tandem quadrupole mass spectrometer (QQ-MS; Waters Corp.). Chromatographic separation was performed on an ACQUITY UPLC BEH C18 1.7 μm column (50 mm × 2.1 mm; Waters Corp.). […] Positive electrospray ionization was used to generate the parental ions. Multiple reaction monitoring, using precursor → product ion transitions of m/z 273.04 → 152.97 and m/z 255.10 → 198.99, was used to quantify NRG and daidzein (internal standard), respectively.

[5] = Pharmacokinetics after intravenous administration of serum containing unchanged NRG and NRG metabolites; format: in vivo, rat; conditions: rats
Experimental: The same amount of NRG SD was intragastrically administered 5 min later. Blood was collected from the heart under isoflurane anesthesia 35 min after the first administration and stored at 4°C for several hours. Serum was then isolated by centrifugation and analyzed by liquid chromatography-tandem mass spectrometry (LC-MS/MS). […] Serum containing the unchanged NRG and NRG metabolites was administered via the tail vein at a dose of 500 μL/rat. […] The plasma was isolated by centrifugation. […] The mixture was centrifuged at 4°C, and 25 μL supernatant was collected and mixed with 75 μL of 30% (v/v) acetonitrile. […] The samples were incubated at 37°C overnight and extracted using the same method that was employed for those containing the unchanged NRG. LC-MS/MS analysis was performed using an ACQUITY UPLC system (Waters Corp., Milford, MA, United States) fitted with a cooling autosampler and a column oven with temperature control. Mass spectrometry was performed using a Waters Xevo TQ-S tandem quadrupole mass spectrometer (QQ-MS; Waters Corp.). Chromatographic separation was performed on an ACQUITY UPLC BEH C18 1.7 μm column (50 mm × 2.1 mm; Waters Corp.). […] The flow rate was set at 0.5 mL/min. The sample injection volume was 5 μL. […]. Positive electrospray ionization was used to generate the parental ions. Multiple reaction monitoring, using precursor → product ion transitions of m/z 273.04 → 152.97 and m/z 255.10 → 198.99, was used to quantify NRG and daidzein (internal standard), respectively.

dissolved NRG [1]: 40%
solubility at 30 min (Solubility test (HPLC)): 0.07 mg/mL (≈ 257 µM)
AUC(0-t) ([4]; rat, plasma, po, 100 mg/kg, unchanged NRG in plasma, read-out: AUC0–1 h): 0.03 ± 0.01 µg·h/mL
AUC(0-t) ([4]; rat, plasma, po, 100 mg/kg, unchanged NRG in plasma, read-out: AUC0–t): 0.74 ± 0.24 µg·h/mL
bioavailability ([4]; rat, plasma, po, 100 mg/kg, unchanged NRG, read-out: F, absolute bioavailability): ~0.5%
AUC(0-inf) ([4]; rat, unchanged NRG in plasma): 0.74 ± 0.24 µg·h/mL
Cmax ([4]; rat, unchanged NRG in plasma): 0.13 ± 0.01 µg/mL
Tmax ([4]; rat, unchanged NRG in plasma): 4 ± 1.26 h
F, absolute bioavailability ([4]; unchanged NRG): 0.52 ± 0.17%
clearance ([5]; plasma, iv, i.v., serum 500 μL/rat, two-compartment model, read-out: CL, total body clearance (converted)): 2.67 mL/min
Vd ([5]; plasma, iv, i.v., serum 500 μL/rat, two-compartment model, read-out: Vd, volume of distribution): 0.19 ± 0.08 L/kg
k el ([5]; plasma, iv, i.v., serum 500 μL/rat, two-compartment model, read-out: ke, elimination rate constant (converted)): 0.00509 s⁻¹
half-life ([5]; plasma, iv, i.v., serum 500 μL/rat, two-compartment model, read-out: t1/2, elimination half-life time (converted)): 0.99 ± 0.33 h
AUC(0-t) ([5]; plasma, iv, serum 500 μL/rat, two-compartment model): 0.12 ± 0.02 µg·h/mL
AUC(0-inf) ([5]; plasma, iv, serum with 34.8 μg/mL unchanged NRG and 134.5 μg/mL NRG metabolites, 500 μL/rat, two-compartment model): 0.13 ± 0.02 µg·h/mL
Structure (SMILES): O=C1C[C@@H](c2ccc(O)cc2)Oc2cc(O)cc(O)c21 [NRG, Naringenin]
number of writhings compared to the control [2]: significantly decreased
cumulative urinary excretion rate relative to the oral NRG dose [3]: ~5.8%
distribution volume as share of the body weight ([5]; i.v.): ~20%
